Experimental data as given in ChEMBL document CHEMBL4814069, “Nucleotide analogues containing a pyrrolidine, piperidine or piperazine ring: Synthesis and evaluation of inhibition of plasmodial and human 6-oxopurine phosphoribosyltransferases and in vitro antimalarial activity” (Eur J Med Chem, 2021).
pIC50, pKi: −log10 of the molar value.

Key:
Plasmodium falciparum [1] = assay: Antimalarial activity against asexual stage of chloroquine-sensitive Plasmodium falciparum D6 infected in human erythrocytes assessed as inhibition of parasite growth measured after 96 hrs by [3H]-hypoxanthine incorporation assay; type: functional, organism-based
Plasmodium falciparum [2] = assay: Antimalarial activity against asexual stage of chloroquine-resistant Plasmodium falciparum W2 infected in human erythrocytes assessed as parasite growth inhibition measured after 96 hrs by [3H]-hypoxanthine incorporation assay; type: functional, organism-based
[3] = Cytotoxicity against human HepG2 cells assessed as cell viability at 100 uM incubated for 72 hrs by Celltiter-Glo assay; type: cell-based; settings: read-out: Activity
[4] = Cytotoxicity against human NHDF cells assessed as cell viability at 100 uM incubated for 72 hrs by Celltiter-Glo assay; type: cell-based; settings: read-out: Activity
HL-60 = assay: Cytotoxicity against human HL60 cells assessed as reduction in cell viability at 10 uM incubated for 72 hrs by Celltiter-Glo assay; type: cell-based; settings: hl-60, 72 h
CCRF-CEM = assay: Cytotoxicity against human CCRF-CEM cells assessed as reduction in cell viability at 10 uM incubated for 72 hrs by Celltiter-Glo assay; type: cell-based
HeLa S3 = assay: Cytotoxicity against human HeLa S3 cells assessed as reduction in cell viability at 10 uM incubated for 72 hrs by Celltiter-Glo assay; type: cell-based; settings: hela s3, 72 h
HepG2 [5] = assay: Cytotoxicity against human HepG2 cells assessed as reduction in cell viability at 10 uM incubated for 72 hrs by Celltiter-Glo assay; type: cell-based; settings: hepg2, 72 h
NHDF [6] = assay: Cytotoxicity against human NHDF cells assessed as reduction in cell viability at 10 uM incubated for 72 hrs by Celltiter-Glo assay; type: cell-based
HepG2 [7] = assay: Cytotoxicity against human HepG2 cells assessed as reduction in cell viability at 50 uM incubated for 72 hrs by Celltiter-Glo assay; type: cell-based; settings: hepg2, 72 h
NHDF [8] = assay: Cytotoxicity against human NHDF cells assessed as reduction in cell viability at 50 uM incubated for 72 hrs by Celltiter-Glo assay; type: cell-based
[9] = target: T1, Hypoxanthine-guanine phosphoribosyltransferase (Homo sapiens, UniProt P00492); assay: Inhibition of human HGPRT using PRib-PP as substrate by Hanes-plot based method
T1 sequence (P00492 whole entry): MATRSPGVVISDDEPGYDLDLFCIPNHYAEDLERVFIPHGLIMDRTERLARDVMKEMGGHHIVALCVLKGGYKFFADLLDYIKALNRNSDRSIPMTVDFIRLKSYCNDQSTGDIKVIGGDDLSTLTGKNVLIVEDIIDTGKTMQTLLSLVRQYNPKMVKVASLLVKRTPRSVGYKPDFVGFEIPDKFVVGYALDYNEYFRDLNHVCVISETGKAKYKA

[10] = Inhibition of Plasmodium falciparum HGXPRT using PRib-PP as substrate by Hanes-plot based method
[11] = Inhibition of Plasmodium vivax HGPRT using PRib-PP as substrate by Hanes-plot based method
[12] = Selectivity index, ratio of Ki for human HGPRT to Ki for Plasmodium falciparum HGXPRT; type: toxicity
[13] = Selectivity index, ratio of Ki for human HGPRT to Ki for Plasmodium vivax HGPRT; type: toxicity
HepG2 [14] = assay: Cytotoxicity against human HepG2 cells assessed as reduction in cell viability incubated for 72 hrs by Celltiter-Glo assay; type: cell-based; settings: HepG2, 72 h
NHDF [15] = assay: Cytotoxicity against human NHDF cells assessed as reduction in cell viability incubated for 72 hrs by Celltiter-Glo assay; type: cell-based
[16] = Selectivity for antimalarial activity against Plasmodium falciparum over cytotoxicity against human HepG2 cells; type: toxicity, cell-based; settings: read-out: Selectivity Index
[17] = Selectivity for antimalarial activity against Plasmodium falciparum over cytotoxicity against human NHDF cells; type: toxicity, cell-based; settings: read-out: Selectivity Index

Row | SMILES | pIC50 (Plasmodium falciparum [1]) | pIC50 (Plasmodium falciparum [2]) | viability at 72 h, 100 µM [3] | viability at 72 h, 100 µM [4] | Activity (HL-60) | Activity (CCRF-CEM) | Activity (HeLa S3) | Activity (HepG2 [5]) | Activity (NHDF [6]) | Activity (HepG2 [7]) | Activity (NHDF [8]) | pKi [9] | pKi [10] | pKi [11] | Ratio Ki [12] | Ratio Ki [13] | pIC50 (HepG2 [14]) | pIC50 (NHDF [15]) | selectivity ratio [16] | selectivity ratio [17]
1 | CCOC(=O)[C@H](Cc1ccccc1)NP(=O)(CCN1CCN(CP(=O)(N[C@@H](Cc2ccccc2)C(=O)OCC)N[C@@H](Cc2ccccc2)C(=O)OCC)CC1Cn1cnc2c(=O)[nH]cnc21)N[C@@H](Cc1ccccc1)C(=O)OCC (stereo not given in full) | 5.29 | 5.57 | 82% | 3% | Non-Toxic | Non-Toxic | Non-Toxic | Non-Toxic | Non-Toxic | Non-Toxic | Non-Toxic |  |  |  |  |  |  |  |  | 
2 | Nc1nc2c(ncn2C[C@H]2CCCN2CCP(=O)([O-])[O-])c(=O)[nH]1.[Na+].[Na+] |  |  |  |  |  |  |  |  |  |  |  | < 4.30 | 4.52 | 4.41 | > 1.7 | > 1.3 |  |  |  | 
3 | CCOC(=O)[C@H](Cc1ccccc1)NP(=O)(CN1CCCC(Cn2cnc3c(=O)[nH]c(N)nc32)C1)N[C@@H](Cc1ccccc1)C(=O)OCC (stereo not given in full) | 4.93 | 5.41 | 103% | 103% | Non-Toxic | Non-Toxic | Non-Toxic | Non-Toxic | Non-Toxic | Non-Toxic | Non-Toxic |  |  |  |  |  |  |  |  | 
4 | CCOC(=O)[C@H](Cc1ccccc1)NP(=O)(CCN1CCC[C@H]1Cn1cnc2c(=O)[nH]c(N)nc21)N[C@@H](Cc1ccccc1)C(=O)OCC | 5.14 | 5.60 | 98% | 97% | Non-Toxic | Non-Toxic | Non-Toxic | Non-Toxic | Non-Toxic | Non-Toxic | Non-Toxic |  |  |  |  |  | < 3.60 | 3.51 | > 35 | > 35
5 | Nc1nc2c(ncn2[C@H]2CCN(C(=O)CP(=O)(O)O)C2)c(=O)[nH]1 |  |  |  |  |  |  |  |  |  |  |  | 4.14 | 6.40 | 5.59 | 182 | 28 |  |  |  | 
6 | CCOC(=O)[C@H](Cc1ccccc1)NP(=O)(CCN1CCN(CP(=O)(N[C@@H](Cc2ccccc2)C(=O)OCC)N[C@@H](Cc2ccccc2)C(=O)OCC)CC1Cn1cnc2c(=O)[nH]c(N)nc21)N[C@@H](Cc1ccccc1)C(=O)OCC (stereo not given in full) | 4.26 | 4.49 | 104% | 14% | Non-Toxic | Non-Toxic | Non-Toxic | Non-Toxic | Non-Toxic | Non-Toxic | Non-Toxic |  |  |  |  |  |  |  |  | 
7 | Nc1nc2c(ncn2CC2CN(CCP(=O)([O-])[O-])CCN2CCP(=O)([O-])[O-])c(=O)[nH]1.[Na+].[Na+].[Na+].[Na+] (stereo not given) |  |  |  |  |  |  |  |  |  |  |  | 6.82 | 5.70 | 5.22 | 0.075 | 0.025 |  |  |  | 
8 | Nc1nc2c(ncn2CCN(CCOCCP(=O)(O)O)CCP(=O)(O)O)c(=O)[nH]1 |  |  |  |  |  |  |  |  |  |  |  |  | 6.72 | 7.52 | 0.45 | 2.725 |  |  |  | 
9 | O=c1[nH]cnc2c1ncn2CC1CN(CCP(=O)([O-])[O-])CCN1CCP(=O)([O-])[O-].[Na+].[Na+].[Na+].[Na+] (stereo not given) |  |  |  |  |  |  |  |  |  |  |  | 6.37 | 5.52 | 4.43 | 0.14 | 0.012 |  |  |  | 
10 | O=c1[nH]cnc2c1ncn2C[C@@H]1CCCN1CCP(=O)([O-])[O-].[Na+].[Na+] |  |  |  |  |  |  |  |  |  |  |  | < 4.30 | 4.36 | < 4.30 | > 1.1 |  |  |  |  | 
11 | CCOC(=O)[C@H](Cc1ccccc1)NP(=O)(CCN1CCC[C@@H]1Cn1cnc2c(=O)[nH]c(N)nc21)N[C@@H](Cc1ccccc1)C(=O)OCC | 4.92 | 5.10 | 98% | 103% | Non-Toxic | Non-Toxic | Non-Toxic | Non-Toxic | Non-Toxic | Non-Toxic | Non-Toxic |  |  |  |  |  |  |  |  | 
12 | CCOC(=O)[C@H](Cc1ccccc1)NP(=O)(CCN1CCC[C@@H]1Cn1cnc2c(=O)[nH]cnc21)N[C@@H](Cc1ccccc1)C(=O)OCC | 5.15 | 5.04 | 98% | 106% | Non-Toxic | Non-Toxic | Non-Toxic | Non-Toxic | Non-Toxic | Non-Toxic | Non-Toxic |  |  |  |  |  |  |  |  | 
13 | O=c1[nH]cnc2c(C3=NCCN3CCCP(=O)(O)O)c[nH]c12 |  |  |  |  |  |  |  |  |  |  |  | < 4.13 | 5.33 | 5.22 | > 16 | > 12 |  |  |  | 
14 | O=c1[nH]cnc2c1ncn2CCN(CCOCCP(=O)(O)O)CCP(=O)(O)O |  |  |  |  |  |  |  |  |  |  |  |  | 6.70 | 7.40 |  |  |  |  |  | 
15 | O=c1[nH]cnc2c1ncn2C[C@H]1CCCN1CCP(=O)([O-])[O-].[Na+].[Na+] |  |  |  |  |  |  |  |  |  |  |  | < 4.30 | 4.82 | < 4.30 | > 3.3 |  |  |  |  | 
16 | CCOC(=O)[C@H](Cc1ccccc1)NP(=O)(CCN1CCC[C@H]1Cn1cnc2c(=O)[nH]cnc21)N[C@@H](Cc1ccccc1)C(=O)OCC | 5.39 | 5.20 | 91% | 117% | Non-Toxic | Non-Toxic | Non-Toxic | Non-Toxic | Non-Toxic | Non-Toxic | Non-Toxic |  |  |  |  |  | < 3.60 | 3.73 | > 29 | > 29
17 | O=c1[nH]cnc2c1ncn2CC1CCCN(CP(=O)([O-])[O-])C1.[Na+].[Na+] (stereo not given) |  |  |  |  |  |  |  |  |  |  |  | < 4.30 | 4.77 | 4.14 | > 2.9 | > 0.7 |  |  |  | 
18 | Nc1nc2c(ncn2C[C@@H]2CCCN2CCP(=O)([O-])[O-])c(=O)[nH]1.[Na+].[Na+] |  |  |  |  |  |  |  |  |  |  |  | 5.05 | 5.30 | 4.70 | 1.8 | 0.45 |  |  |  | 
19 | Nc1nc2c(ncn2CC2CCCN(CP(=O)([O-])[O-])C2)c(=O)[nH]1.[Na+].[Na+] (stereo not given) |  |  |  |  |  |  |  |  |  |  |  | 5.15 | 5.70 | 4.54 | 3.5 | 0.24 |  |  |  | 
20 | CCOC(=O)[C@H](Cc1ccccc1)NP(=O)(CN1CCCC(Cn2cnc3c(=O)[nH]cnc32)C1)N[C@@H](Cc1ccccc1)C(=O)OCC (stereo not given in full) | 5.10 | 4.93 | 105% | 107% | Non-Toxic | Non-Toxic | Non-Toxic | Non-Toxic | Non-Toxic | Non-Toxic | Non-Toxic |  |  |  |  |  |  |  |  | 
